The data set has as its target recombinant human CYP3A4 enzyme (Homo sapiens, UniProt P08684). Kind of data set: CYP3A4-Glo Screening System luminescent CYP3A4 inhibition assay. Conditions: for CYP3A4 inhibition activity (in words): compared with pterostilbene and ellipticine.

Chain of recombinant human CYP3A4 enzyme (P08684 whole entry): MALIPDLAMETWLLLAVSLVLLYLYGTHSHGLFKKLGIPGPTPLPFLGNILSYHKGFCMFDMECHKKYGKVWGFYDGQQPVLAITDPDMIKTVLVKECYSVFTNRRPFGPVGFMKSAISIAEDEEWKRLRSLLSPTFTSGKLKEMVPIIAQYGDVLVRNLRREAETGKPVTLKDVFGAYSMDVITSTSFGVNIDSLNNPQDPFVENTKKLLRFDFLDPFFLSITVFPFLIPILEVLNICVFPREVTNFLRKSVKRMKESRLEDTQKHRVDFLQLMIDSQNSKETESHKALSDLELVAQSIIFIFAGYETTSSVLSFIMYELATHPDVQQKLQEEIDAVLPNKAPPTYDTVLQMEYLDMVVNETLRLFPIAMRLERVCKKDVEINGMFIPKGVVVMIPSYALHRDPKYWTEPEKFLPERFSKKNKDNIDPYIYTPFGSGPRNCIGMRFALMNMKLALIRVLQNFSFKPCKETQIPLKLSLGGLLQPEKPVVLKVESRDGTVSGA

A word on the IC50: it is the concentration that gives 50% inhibition. Take `COc1cc(/C=C/c2ccc(O)cc2)cc(OC)c1` [Pterostilbene]: the IC50 amounted to 1.12 ± 0.056 µM.

Regarding `Cc1c2ccncc2c(C)c2c1[nH]c1ccccc12` [Ellipticine], the IC50 worked out at 0.052 ± 0.003 µM.

Turning to `O=C(/C=C/c1ccc(O)cc1)CC(=O)/C=C/c1ccc(O)cc1` [Bisdemethoxycurcumin], the half-inhibitory concentration (IC50) is 14.8 ± 2.09 µM and the “CYP3A4 inhibition activity (in words)” value was “weaker”.

On to `CC(C)=CCOc1c2ccoc2cc2oc(=O)ccc12` [Isoimperatorin], for which the IC50 turned out to be 18.2 ± 1.72 µM and the “CYP3A4 inhibition activity (in words)” value is “weaker”.

(Values after PMC9086869 (RSC Advances, 2018).)
